Results on two molecules are retold here after patent US7223731B2, “Thrombospondin-1 type 1 repeat polypeptides” (Beth Israel Deaconess Medical Center, Inc., priority 2000, dated 2007).

Assay [1] relates to B16F10 melanoma. Nature of the assay: Primary tumor growth assay, B16F10 melanoma. Format: in vivo, C57BL/6 mice. To be noted: for inhibition of B16F10 tumor growth: 1.0 mg/kg/day IP daily, twelfth day of treatment; for inhibition of B16F10 tumor growth (tumor volume): 2.5 mg/kg/day IP daily. The protocol: The proteins for injection were mixed with Polymyxin B-Agarose (Sigma) for 30 minutes at room temperature to remove endotoxin. The endotoxin levels were less than 0.05 EU/mg as determined using the QCL-1000 assay kit (Biowhittaker, Walkersville, Md.). Proteins were filter-sterilized and the protein concentration was determined prior to injection.
Five to eight week old C57BL/6 mice (Taconic, Germantown, N.Y.) were acclimated, caged in groups of four or less and their backs were shaved. Cultured B16F10 melanoma or Lewis lung carcinoma cells (1×10^6) were inoculated subcutaneously on the back of each mouse. Tumors were measured with a dial-caliper and the volumes were determined using the formula width^2×length×0.52. The treatment began 4 days after inoculation of the tumor cells. […] The experiments were terminated and mice sacrificed when the control mice began to die, usually at day 16 post-tumor cell injection.
Each treatment group contained six five- to eight-week old C57BL/6 mice. Treatment was initiated four days after subcutaneous injection of 1×10^6 B16F10 melanoma cells. The mice received one IP injection each day of saline, TSR2, TSR2+RFK or TSR2+QFK (SEQ ID NO: 23). A soluble form of the TGFβ receptor (100 μg/mouse/injection) (Smith, J. D. et al., Circulation Research 84:1212–1222, 1999) was included in the saline or TSR2+RFK injections on treatment day 1 and 7 for two additional experimental groups. The recombinant TSR-containing proteins were used at 1.0 mg/kg/day.
Each treatment group contained six five- to eight-week old C57BL/6 mice. Treatment was initiated four days after subcutaneous injections of 1×10^6 B16F10 melanoma cells. The mice received one IP injection each day, of saline, all three type 1 repeats of human TSP-1 [3TSR (TSP1) in FIG. 9] or all three type 1 repeats of mouse TSP-2 [3TSR (TSP2) in FIG. 9]. Recombinant proteins were used at a dose of 2.5 mg/kg/day.

Assay [2] relates to B16F10 tumors. Nature of the assay: Histological examination of B16F10 tumors (anti-CD31, TUNEL, PCNA). It is filed as in vivo, C57BL/6 mice. To be noted: 1.0 mg/kg/day, twelfth treatment day; for decrease in number of proliferating tumor cells: PCNA positive cells; for increase in tumor cell apoptosis: TUNEL; for reduction in capillary density: anti-CD31. How it is done:
The tumor tissues were cut, fixed with neutral buffered formaldehyde, and embedded in paraffin according to standard histological procedures. Hematoxylin and eosin staining was employed for tissue morphology examination. Blood vessels were immunochemically stained by anti-CD31 antibody with a Vectastain ABC kit (Vector Laboratories, Burlingame, Calif.). Tumor cell apoptosis was detected by TUNEL assay (Abe, M. et al., Anal. Biochem, 216:276–84, 1994). The number of blood vessels was recorded by counting ten high-power fields. Tumor cell proliferation and the apoptotic index were estimated by the percentage of cells scored under a light microscope. A minimum of 1,000 cells was counted in each tumor sample. To better understand the effect of the recombinant protein treatment on tumor growth, we have determined the rate of proliferation, the apoptotic index and the capillary density for tumors in the saline control group, mice treated with the TSR2+RFK protein or mice treated with the TSR2 protein at an intermediate dose (1.0 mg/kg/day) where the largest effect of inclusion of the RFK sequence is observed. Tumors were removed and fixed on the twelfth treatment day. Capillaries were visualized with anti-CD31 antibody and apoptotic cells were identified by TUNEL. […] The number of proliferating cells was decreased by 35% by treatment with the TSR2+RFK protein (p<0.005), while treatment with the TSR2 protein reduced tumor cell proliferation by 7.8% (p<0.05) (FIG. 6C).

The subject of assay [3] is TGFβ. Nature of the assay: Assay for TGFβ activation (MLEC luciferase assay on B16F10 conditioned media). Format: cell-based, murine. The note with it: for level of the active form of TGFβ as % of the total TGFβ: 5 μg/ml protein added, media conditioned by B16F10 melanoma cells, control 6.3%; for activation of TGFβ (in words): culture supernatant from B16F10 cells. The protocol: Human dermal microvessel endothelial cells (HDMEC) were isolated by the procedure of Richard et al., Exp. Cell Res. 240:1-6 (1998). The cells were cultured in Vitrogen precoated dishes, and maintained in EBM (Clonetics Corp, San Diego, Calif.) containing 20% fetal bovine serum (FBS), 1 mg/ml hydrocortisone acetate, 5×10^-5 M dibutyryl-cAMP, 200 U/ml penicillin, 100 U/ml streptomycin, 250 mg/ml amphotericin and 2-5 ng/ml VEGF. Murine melanoma B16F10 and murine Lewis lung carcinoma cells were obtained from the ATCC, and were maintained in Dulbecco's Modified Eagle Media (DMEM) supplemented with 10% FBS, […] penicillin, 50 U/ml streptomycin, and 2 mM glutamine (supplemented DMEM). Mink lung epithelial cells (MLECs-Clone 32) that have been stably transfected with an 800 bp fragment of the plasminogen activator inhibitor-1 (PAI-1) promoter fused to the firefly luciferase reporter gene were kindly provided by Dr. Daniel Rifkin (Abe, M. et al., Anal. Biochem. 216:276-284, 1994). The transfected MLECs were maintained in supplemented DMEM. B16F10 cells (2.5×10^5) were plated in a T25 flask and grown overnight in supplemented DMEM. The cells were rinsed once with 1.0 ml of serum-free DMEM and 2.5 ml of serum-free DMEM containing […] of the TSR, or […] recombinant protein were added. After an overnight incubation, conditioned media was collected and centrifuged at 12,000 rpm for 5 min to remove cellular debris. Undiluted media was used to determine the level of active TGFβ. The level of total TGFβ was determined by incubating the media at 80° C. for 10 min and diluting 1:5 in DMEM. One hundred microliters of conditioned media were added to wells of a 96-well plate containing 3×10^4 MLECs and the plates were incubated overnight. A standard curve was constructed by incubating 7.8 to 250 pg/ml of purified TGFβ with the […].) in DMEM. The media was removed and the cells were washed 3 times with cold PBS prior to the addition of […] of lysis buffer (PharMingen, San Diego, Calif.). Luciferase activity was measured using the Enhanced Luciferase Assay Kit PharMingen).

Regarding “TSR2: recombinant protein that contains the second TSR of human TSP-1, amino acids 416–473, excludes DKRFK”, in assay [1] (0.25 mg/kg/day IP daily), the “B16F10 tumor growth inhibition (in words)” value is on record as “indistinguishable from the control group”. Besides, in assay [1], the “inhibition of B16F10 tumor growth” value came out at 38% and the “inhibition of B16F10 tumor growth (tumor volume)” value is 68%. Also, in assay [2], the “decrease in number of proliferating tumor cells” value is on record as 7.8%, the “increase in tumor cell apoptosis” value stood at 1.9 fold and the “reduction in capillary density” value stood at 64%. Moreover, in assay [3], the “level of the active form of TGFβ as % of the total TGFβ” value was 4.8% and the “activation of TGFβ (in words)” value was “does not”.

B1: TSR2+RFK: recombinant longer version of the second type 1 repeat of human TSP-1 including the RFK sequence, amino acids 411–473 (protein, listed as Homo sapiens)
chain: DKRFKQDGGWSHWSPWSSCSVTCGDGVITRIRLCNSPSPQMNGKPCEGEARETKACKKDACPI
In the case of B1, in assay [1], the “inhibition of B16F10 tumor growth” value was determined as 80% and the “inhibition of B16F10 tumor growth (tumor volume)” value amounted to 86%. In addition, in assay [2], the “decrease in number of proliferating tumor cells” value amounted to 35%, the “increase in tumor cell apoptosis” value is reported as 4 fold and the “reduction in capillary density” value amounted to 71%. In assay [3], the “level of the active form of TGFβ as % of the total TGFβ” value was found to be 30% and the “activation of TGFβ (in words)” value is listed as “activates TGFβ”.
